The target in data set [1] is T1, BSA (Bos taurus, UniProt P02769).
T1 construct: BSA stock solution (35%, in water, 0.85% sodium chloride, from Sigma); purchased Sigma / Sigma Aldrich
Description: Reduction of aggregation of BSA induced by t-butanol, SEC HPLC. Type of data set: physicochemical, Bovine. Conditions: BSA precipitated with t-butanol, re-dissolved in PBS. How it is done: To three separate test tubes containing 0.050 ml of BSA (35%, 0.85% sodium chloride) and 0.050 ml of phosphate buffer (50 mM, pH 7.4), were respectively added 0.010 ml of water, 0.010 mll of 2-formylbenzenesulfonic acid sodium salt (75 mg/ml, pH 8), and 0.010 ml of pyridoxal phosphate (100 mg/ml, pH 7.4). To each of the three tubes were then added 0.50 ml of PEG solution (75%, molecular weight 3400) followed by centrifugation to give some precipitate. The three supernatants were collected to have BSA at saturated concentrations, and to them were separately added 0.50 ml of t-butanol to have more BSA precipitates after centrifugation. The crops of precipitates from t-butanol were washed with t-butanol twice (0.75 ml each) and re-dissolved in PBS buffer (50 mM sodium phosphate, pH 7.4, 0.85% sodium chloride) for SEC HPLC analysis. Plain BSA produced about 75% of aggregates, the sample with 2-formylbenzenesulfonic acid produced about 60% of aggregates, the sample with pyridoxal phosphate produced less than 50% of aggregates.

Data set [2] addresses T2, Bovine Serum Albumin (BSA) (Bos taurus, UniProt P02769).
T2 construct: BSA stock solution (35%, in water, 0.85% sodium chloride, from Sigma); purchased Sigma / Sigma Aldrich
Description: Inhibition of thermal aggregation of BSA, SEC HPLC. Type of data set: physicochemical. The following applies: 65° C., BSA 1.75 mg/ml, excipient 11.25 mg/ml, pH 7.4. The protocol:
A 0.050 ml of BSA stock solution (35%, in water, 0.85% sodium chloride, from Sigma) was diluted into 0.450 ml of sodium phosphate buffer (50 mM, pH 7.4, 0.85% sodium chloride) to give a BSA solution at concentration of 35 mg/ml. An excipient, 2-formylbenzenesulfonic acid, sodium salt (Aldrich, 75%), was made into a solution in water (HPLC grade) at concentration of 75 mg/ml, and its pH was adjusted to 8 using dilute hydrochloric acid.
An aliquot of 0.050 ml of the above stock BSA solution (35 mg/ml) was diluted into PBS buffer (pH 7.4, 0.80 ml), and 0.15 ml of the excipient solution was added to it to make a BSA concentration of 1.75 mg/ml, and the excipient of 11.25 mg/ml. A separate sample was prepared without the addition of the excipient. Both samples in capped glass tubes are incubated at 65° C. […] […] SEC column: TSK gel G3000 SW, 7.5×300 mm, Tosoh Biosciences, part number 05789. Mobile phase: 50 mM phosphate buffer, pH 7.4, 0.85% sodium chloride. Flow rate: 1.0 ml/min. Detection: 280 nm Instrument: BuckChrom BLC-20.

Data set [3] has as its target T1, BSA. In words: Screening of excipients at pH 6.2 for capacity to deter BSA from forming a gel. Type of data set: physicochemical, Bovine. The following applies: for Results, 65° C., 60 minutes: BSA 175 mg/ml. The protocol:
Various excipients were tested for their capacity to deter BSA from forming a gel, using sucrose as a reference, in malonic acid buffer (25 mM), incubated at 65° C. for 60 minutes. The excipients used were sucrose, 4-formylbenzene-1,3-disulfonic acid, 4-formylbenzoic acid, phenylglyoxylic acid, glyoxylic acid. (Tables 2 through 6).

The target in data set [4] is T3, Myoglobin (Horse Skeleton) (Equus caballus, UniProt P68082).
T3 construct: Myoglobin (Horse Skeleton, Sigma) was made into a stock solution (10 mg/ml); purchased Sigma; host or cells: horse skeletal muscle ('Horse Skeleton' [sic])
In words: Inhibition of myoglobin thermal aggregation at 65° C. Type of data set: physicochemical. The protocol:
Myoglobin (Horse Skeleton, Sigma) was made into a stock solution (10 mg/ml) in sodium bicarbonate buffer (0.1 M, pH 9.0). This solution (0.5 ml) was then mixed with various excipient stock solutions (0.10 ml) to provide a series of test samples with the same final myoglobin concentration and varying excipient concentrations ([X]). Then the samples in sealed test tubes were inserted into wells of heating block that was pre-set at 65° C., and the incubation was continued over a period of time, to observe the formation of fibrillation precipitates (PPT).

The target in data set [5] is T4, zinc-free recombinant human insulin, NovoRapid, LisPro (Homo sapiens, UniProt P01308).
T4 construct: A solution of zinc-free recombinant human insulin was prepared in phosphate buffer
In words: Inhibition of insulin fibrillation by glyoxylic acid, rotator at room temperature. Type of data set: physicochemical. The following applies: 20 mM glyoxylic acid, phosphate buffer pH 7.0, room temperature, rotator 12 rotations per minute. How it is done: (§1) A solution of zinc-free recombinant human insulin was prepared in phosphate buffer (50 mM, pH 7.0, no sodium chloride) at concentration of 1.0 mg/ml, containing 0 and 20 mM glyoxylic acid. Commercial NovoRapid (Novo Nordisk, 100 IU/ml) was diluted with phosphate buffer to 25 IU/ml, with and without glyoxylic acid (0 or 20 mM). Humalog 25 (100 IU/ml, Eli Lilly) was centrifuged to collect the supernatant, and the LisPro concentration was assumed to be 25 IU/ml. Then two LisPro samples were made with and without glyoxylic acid (0 or 20 mM) with assumed final LisPro concentration of 20 IU/ml. Each of the samples (1.0 ml) was transferred into a capped 10 ml test tube, and loaded onto a rotator that was set at 12 rotations per minute at room temperature.

Another data set concerns the target T5, Humulin R (zinc insulin) (Homo sapiens, UniProt P01308).
T5 construct: purchased
In words: Inhibition of zinc insulin fibrillation by glyoxylic acid, rotator at room temperature. Type of data set: physicochemical. The following applies: containing glyoxylic acid, conditions as in Example 11, rotator. The protocol: as §1, with “temperature. […] Conditions were as in Example 11 above, but using commercial Humulin R (100 IU/ml).” for “temperature.”

Data set [6] addresses T1, BSA. Description: Inhibition of BSA thermal aggregation (gel/solid formation) at 65° C. over 60 min, phosphate buffer. Type of data set: physicochemical, Bovine. How it is done:
[…] All samples were inserted into wells of heating block that was preset at 65° C.
Ten microliter of the above clear solutions were each diluted with 1.0 ml of phosphate buffer (pH 7.4), and a reference sample of BSA solutions of 2.5 mg/ml was prepared in the same buffer. Small aliquot of 0.10 ml of all the five diluted samples were analyzed on SEC HPLC (TSK gel G 3000 SW, 5 mm×300 mm), eluted with 50 mM sodium phosphate buffer (pH 7.4) containing 0.85% sodium chloride at flow rate of 1.0 ml/min monitored at 280 nm.

Where [7] appears, read: malonate 25 mM pH 6.2, excipient 9.4 mg/ml.
Setting [8] is: malonate 25 mM pH 6.2, excipient 18.8 mg/ml.
[9] abbreviates: malonate 25 mM pH 6.2, excipient 37.5 mg/ml.
[10] abbreviates: pH 9.0, 5 weeks, one cell for all [X] of the excipient.
Where [11] appears, read: pH 9.0, 1 days, one cell for all [X] of the excipient.
The mark [12] stands for this setting: pH 9.0, 2 days, one cell for all [X] of the excipient.
[13] abbreviates: pH 9.0, 4 days, one cell for all [X] of the excipient.

T3 sequence (P68082 whole entry): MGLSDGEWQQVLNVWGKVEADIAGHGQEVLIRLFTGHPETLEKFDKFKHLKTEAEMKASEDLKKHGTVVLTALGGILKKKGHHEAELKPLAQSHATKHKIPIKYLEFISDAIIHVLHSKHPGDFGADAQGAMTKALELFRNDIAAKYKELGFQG
T1 sequence (P02769 25-607): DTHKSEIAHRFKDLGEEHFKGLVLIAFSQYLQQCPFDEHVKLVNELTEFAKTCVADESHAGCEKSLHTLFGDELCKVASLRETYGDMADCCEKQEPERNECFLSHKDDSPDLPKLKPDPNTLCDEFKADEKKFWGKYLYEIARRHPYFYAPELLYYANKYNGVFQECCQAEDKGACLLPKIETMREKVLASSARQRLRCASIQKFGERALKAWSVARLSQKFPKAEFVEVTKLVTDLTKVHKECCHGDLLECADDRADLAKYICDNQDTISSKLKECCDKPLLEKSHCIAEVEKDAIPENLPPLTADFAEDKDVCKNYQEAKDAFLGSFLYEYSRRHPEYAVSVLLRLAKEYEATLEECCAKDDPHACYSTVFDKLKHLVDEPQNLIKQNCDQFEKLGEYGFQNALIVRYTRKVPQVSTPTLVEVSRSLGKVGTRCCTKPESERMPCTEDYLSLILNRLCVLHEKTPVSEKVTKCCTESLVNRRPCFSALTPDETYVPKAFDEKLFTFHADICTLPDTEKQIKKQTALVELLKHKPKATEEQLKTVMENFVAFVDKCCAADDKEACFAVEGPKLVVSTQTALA
T2 sequence (P02769 25-607): as above
T4 sequence (P01308 25-54 limits assumed): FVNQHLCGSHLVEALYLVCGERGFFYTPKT
T4 sequence (P01308 90-110 limits assumed): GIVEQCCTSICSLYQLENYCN
T5 sequence (P01308 25-54 limits assumed): as the sequence (P01308 25-54 limits assumed) above

As for `O=Cc1ccccc1S(=O)(=O)[O-].[Na+]` [2-formylbenzenesulfonic acid, 2-formylbenzenesulfonic acid, sodium salt], the Aggregates produced entry on BSA [1] is on record as “about 60%”. For the same molecule, the entries for the “BSA aggregation on SEC HPLC” value in data set [2] (40 minutes) and in data set [2] (60 minutes) were “no significant change of BSA” and “aggregates started to show up in an insignificant amount”, respectively.
`O=Cc1ccc(C(=O)O)cc1` [4-Formylbenzoic acid]: the “Results, 65° C., 60 minutes” value at BSA [3] (setting [7]), at BSA [3] (setting [8]) and at BSA [3] (setting [9]) was “Clear” each time.
As for `O=C(O)C(=O)c1ccccc1` [Phenylglyoxylic Acid], the “Results, 65° C., 60 minutes” value at BSA [3] (setting [7]), at BSA [3] (setting [8]) and at BSA [3] (setting [9]) was “Clear” throughout. In addition, the “Formation of fibrillation precipitates (PPT)” value (shortened to “Formation”) is reported as “Precipitate” in data set [4] (setting [10]), “Precipitate (PPT)” in data set [4] (setting [11]), “Precipitate” in data set [4] (setting [12]) and “Precipitate” in data set [4] (setting [13]).
`O=CC(=O)O` [Glyoxylic Acid]: the “Results, 65° C., 60 minutes” value is reported as “Clear” at BSA [3] (malonate 25 mM pH 6.2, excipient 5.8 mg/ml); “Clear” on BSA [3] (malonate 25 mM pH 6.2, excipient 11.5 mg/ml); “Clear” on BSA [3] (malonate 25 mM pH 6.2, excipient 23 mg/ml). In addition, the “Formation” value in data set [4] (setting [10]) is “Precipitate”; in data set [4] (pH 9.0, 1 days, higher part of [X] 16.7/41.7/83.3 mM (cell span not shown)), “Clear”; in data set [4] (pH 9.0, 1 days, lower part of [X] 16.7/41.7/83.3 mM (cell span not shown)), “PPT”; in data set [4] (pH 9.0, 2 days, higher part of [X] 16.7/41.7/83.3 mM (cell span not shown)) it was “Clear”; in data set [4] (pH 9.0, 2 days, lower part of [X] 16.7/41.7/83.3 mM (cell span not shown)), “PPT”; in data set [4] (setting [13]), “Precipitate”. Besides, in data set [5], the “Appearance of insulin solution (fibrillation)” value is reported as “stayed in clear solutions beyond four weeks”. Also, the “Appearance of Humulin R solution (fibrillation)” value at Humulin R (zinc insulin) is listed as “remained clear six days before turning cloudy”.
On to `O=Cc1ccc(S(=O)(=O)O)cc1S(=O)(=O)O` [4-Formyl-1,3-benzenedisulfonic Acid, 4-Formyl-1,3-benzenedisulfonic acid], for which the “Results, 65° C., 60 minutes” value at BSA [3] (malonate 25 mM pH 6.2, excipient 7.1 mg/ml) is recorded as “Clear”; at BSA [3] (malonate 25 mM pH 6.2, excipient 14.4 mg/ml), “Clear”; on BSA [3] (malonate 25 mM pH 6.2, excipient 28.8 mg/ml), “Clear”; on BSA [6] (BSA 262.5 mg/ml, phosphate 25 mM pH 7.4, excipient 12.5 mg/ml), “Clear”; at BSA [6] (BSA 262.5 mg/ml, phosphate 25 mM pH 7.4, excipient 12.5 mg/ml, listed as 4-Formyl-1,3-benzenedisulfonic acid), “prevents BSA (262 mg/ml) from turning into gellified solid”; on BSA [6] (BSA 262.5 mg/ml, phosphate 25 mM pH 7.4, excipient 25 mg/ml), “Clear”. Further, the “Results, 65° C., 60 minutes” value on BSA [6] (BSA 262.5 mg/ml, phosphate 25 mM pH 7.4, excipient 50 mg/ml) was “Clear”; on BSA [6] (repeated at pH 6.8, excipient 12.5 mg/ml) it was “remained as clear solution”. Further, the “Rank in deterring myoglobin from fibrillation (summary in words)” value in data set [4] (pH 9.0) is on record as “best among this group”. For the same molecule, the “Formation” value in data set [4] (setting [10]), in data set [4] (setting [11]), in data set [4] (setting [12]) and in data set [4] (setting [13]) was “Clear” each time.
As to `O=Cc1cc(C(=O)O)ccc1O` [3-Formyl-4-hydroxylbenzoic Acid], the “Formation” value in data set [4] (setting [10]), in data set [4] (setting [11]), in data set [4] (setting [12]) and in data set [4] (setting [13]) was “Precipitate” throughout.
Take `OC[C@H]1O[C@@](CO)(O[C@H]2O[C@H](CO)[C@@H](O)[C@H](O)[C@H]2O)[C@@H](O)[C@@H]1O` [Sucrose, sucrose, reference compound]: the “Results, 65° C., 60 minutes” value was “Pale Gel” at BSA [3] (malonate 25 mM pH 6.2, excipient 75 mg/ml); “Pale Gel” on BSA [3] (malonate 25 mM pH 6.2, excipient 125 mg/ml); “Gel” on BSA [3] (malonate 25 mM pH 6.2, excipient 175 mg/ml). Also, on BSA [3] (pH 6.2, 65° C., 60 minutes, all concentrations tested), the “Power to prevent BSA from turning into gel or solid (summary in words)” value is “does not have strong power to prevent BSA from turning into gel or solid”.

The values are drawn from US8642532B2, “Excipients for protein stabilization” (priority 2007, dated 2014).
